# Measurements from patent US6869959B1, “Heterocyclic carboxylic acid derivatives” (Institute of Medicinal Molecular Design Inc., priority 1999, dated 2005).
# Assays:
# [1] = test system: promyelocytic leukemia cell stain HL-60; test: Effect on cell differentiation-inducing action of co-existing retinoid Am80 in HL-60 cell; assay type: cell-based; settings: HL-60, NBT reduction
# Source text: (§1) By using the above compounds, cell differentiation-inducing activity of each compound alone, and effect on cell differentiation-inducing action of a co-existing retinoid were examined. As a comparative and co-existing retinoid, Am80: 4-[(5,6,7,8-tetrahydro-5,5,8,8-tetramethyl-2-naphthalenyl)carbamoyl]benzoic acid (1×10^−10 M) was used. According to the method described in Japanese Patent Unexamined Publication (KOKAI) No.(Sho)61-76440/1986, promyelocytic leukemia cell stain HL-60 was used, and differentiation into granulocytic cells was determined by observing morphological change and measuring ability to reduce nitroblue tetrazolium (NBT). The ratios of differentiated cells shown in the following table were calculated from the ability of reducing NBT.
# [2] = test system: promyelocytic leukemia cell stain HL-60; test: Cell differentiation-inducing activity test in HL-60 cell, each compound alone; assay type: cell-based; settings: HL-60, NBT reduction
# Source text: as §1
compound,measurement,setting,value
CCCN(c1ccc2c(c1)C(C)(C)CCC2(C)C)c1ncc(C(=O)O)cn1 [Compound 3],Ratio of differentiated cells by each compound co-existing with 1 × 10^−10 M Am80 (%),[1]; compound concentration 10^−7 M + 1 × 10^−10 M Am80,89%
same,Ratio of differentiated cells by each compound co-existing with 1 × 10^−10 M Am80 (%),[1]; compound concentration 10^−8 M + 1 × 10^−10 M Am80,87%
same,Ratio of differentiated cells by each compound co-existing with 1 × 10^−10 M Am80 (%),[1]; compound concentration 10^−9 M + 1 × 10^−10 M Am80,90%
same,Ratio of differentiated cells by each compound co-existing with 1 × 10^−10 M Am80 (%),[1]; compound concentration 10^−10 M + 1 × 10^−10 M Am80,60%
same,Ratio of differentiated cells by each compound co-existing with 1 × 10^−10 M Am80 (%),[1]; compound concentration 10^−11 M + 1 × 10^−10 M Am80,27%
same,Ratio of differentiated cells by each compound alone (%),[2]; compound concentration 10^−6 M,16%
same,Ratio of differentiated cells by each compound alone (%),[2]; compound concentration 10^−7 M,14%
same,Ratio of differentiated cells by each compound alone (%),[2]; compound concentration 10^−8 M,9%
"Cc1cc2c(cc1Nc1ncc(C(=O)O)cn1)C(C)(C)CCC2(C)C [Compound 5, 2-[N-(5,6,7,8-Tetrahydro-3,5,5,8,8-pentamethylnaphthalen-2-yl)amino]pyrimidine-5-carboxylic Acid]",melting point,,267 °C
"CCCN(c1ncc(C(=O)O)cn1)c1cc2c(cc1C)C(C)(C)CCC2(C)C [Compound 7, 2-[N-n-Propyl-N-(5,6,7,8-tetrahydro-3,5,5,8,8-pentamethyl-naphthalen-2-yl)amino]pyrimidine-5-carboxylic Acid]",melting point,,193 °C
"Cc1cc2c(cc1N(CC1CC1)c1ncc(C(=O)O)cn1)C(C)(C)CCC2(C)C [Compound 8, 2-[N-Cyclopropylmethyl-N-(5,6,7,8-tetrahydro-3,5,5,8,8-pentamethylnaphthalen-2-yl)amino]pyrimidine-5-carboxylic Acid]",melting point,,123 °C
"CN(c1cc(C(C)(C)C)cc(C(C)(C)C)c1)c1ncc(C(=O)O)cn1 [Compound 9, 2-[N-(3,5-Di-tert-butylphenyl)-N-methylamino] pyrimidine-5-carboxylic Acid]",melting point,,261 to 263 °C
"CCCN(c1ncc(C(=O)O)cn1)c1cc(C(C)(C)C)ccc1C(C)(C)C [Compound 11, 2-[N-(3,6-Di-tert-butylphenyl)-N-n-propylamino]pyrimidine-5-carboxylic Acid]",melting point,,219 °C
"CC(C)(C)c1cc(N(CC2CC2)c2ncc(C(=O)O)cn2)cc(C(C)(C)C)c1 [Compound 12, 2-[N-Cyclopropylmethyl-N-(3,5-di-tert-butylphenyl)-amino]pyrimidine5-carboxylic Acid]",melting point,,194 °C
